Results published in PubChem BioAssay AID1996.
Values after ≈ are worked out from the molar mass of the structure shown.

Conditions: buffer; pH 7.4; 200.0 µM

First: CC(=O)Nc1ccccc1NC(=O)c1ccccc1-c1ccccc1
Second: Cc1cccc(NC(=O)c2ccccc2NC(=O)c2ccccc2)n1
The solubility kinetic of the first is higher: > 49.6 µg/mL for the first, 1.8 µg/mL (≈ 5.43 µM) for the second.

First: COc1ccc(OC)c(NC(=O)Nc2ccc3c(c2)CCC3)c1
Second: CCOc1ccc(N/C=C/C(=O)c2ccc(OC)c(OC)c2)cc1
The solubility kinetic of the first is 1.7-fold lower: 1.3 µg/mL (≈ 4.16 µM) for the first, 2.2 µg/mL (≈ 6.72 µM) for the second.

Compared with `O=S(=O)(c1ccc(Cl)cc1)N1CCN2CCCC2C1` (stereo unspecified), `CCCCOc1ccc(S(=O)(=O)N2CCCCC2)cc1` is lower in solubility kinetic: > 45.1 µg/mL for the first, 1.1 µg/mL (≈ 3.7 µM) for the second.

Going from `CN1CCc2c(sc3nc(NCCO)n(-c4cccc(Cl)c4)c(=O)c23)C1` to `Cc1cc(Nc2cccc(Cl)c2)nc(-c2ccccc2O)n1`, the solubility kinetic falls from 58.3 µg/mL (≈ 149 µM) to 0.6 µg/mL (≈ 1.92 µM) (97-fold).

`O=C(Nc1nccs1)C1CC(=O)N(c2ccccc2)C1` (stereo unspecified) and `Cc1ccnc(NC(=O)CCNC(=O)c2ccccc2Cl)c1` cannot be ordered by solubility kinetic: > 43.1 µg/mL for the first, > 47.7 µg/mL for the second.

`O=C(NC(=S)N1CCCC(C(F)(F)F)C1)c1ccc(F)cc1` (stereo unspecified) and `O=C(CCc1ccncc1)N1CCCC(Nc2ccc(F)cc2)C1` (stereo unspecified) are within 1.5-fold of each other in solubility kinetic: 37.9 µg/mL (≈ 113 µM) for the first, 45.6 µg/mL (≈ 139 µM) for the second.

Compared with `Cc1cccc(NC(=O)CCOc2ccccc2)c1C`, `COc1ccc2[nH]cc(CCNC(=O)Nc3ccccc3C)c2c1` is 1.5-fold lower in solubility kinetic: 15.6 µg/mL (≈ 57.9 µM) for the first, 10.4 µg/mL (≈ 32.2 µM) for the second.

First: O=C(COC(=O)COc1ccccc1)NC1CCS(=O)(=O)C1 (stereo unspecified)
Second: CCC(=O)c1ccc(OCC(=O)OCC(=O)Nc2ccc3c(c2)OCCO3)cc1
The solubility kinetic of the first is higher: > 49.1 µg/mL for the first, 18.8 µg/mL (≈ 47.1 µM) for the second.

First: Cc1ccc(NC(=O)CN2C(=O)NC3(CCCc4ccccc43)C2=O)c(Cl)c1 (stereo unspecified)
Second: COC(=O)C1=C(C)N(Cc2ccccc2)C(=O)/C1=C\c1ccco1
The solubility kinetic of the first is 13-fold higher: 47 µg/mL (≈ 118 µM) for the first, 3.7 µg/mL (≈ 11.4 µM) for the second.

Going from `CCCCOc1ccc(C2C(C(=O)c3ccc(C)o3)=C(O)C(=O)N2Cc2ccco2)cc1` (stereo unspecified) to `CCOc1ccc(Nc2nc3c(C)cccc3cc2C#N)cc1`, the solubility kinetic falls from 46.9 µg/mL (≈ 108 µM) to < 0.2 µg/mL.

`COCC(=O)Nc1c(C(=O)N2CCCC2)oc2ccccc12` and `COC(=O)c1ccccc1NC(=O)CN1CCC(C)CC1` are within 1.5-fold of each other in solubility kinetic: 40.4 µg/mL (≈ 134 µM) for the first, 30.8 µg/mL (≈ 106 µM) for the second.

Going from `NC(=O)COC(=O)c1ccc(-c2ccc(O)cc2)cc1` to `Br.Oc1ccc(-c2cn3ccccc3n2)cc1`, the solubility kinetic rises from 1.1 µg/mL (≈ 4.05 µM) to 36.5 µg/mL (33-fold).

Going from `CC(CCc1ccccc1)NCC#N.Cl` (stereo unspecified) to `CCOC(=O)c1sc(NC(=O)CC(C)c2ccccc2)nc1C` (stereo unspecified), the solubility kinetic falls from 31.1 µg/mL to < 0.4 µg/mL.

First: COC(=O)c1ccc(COc2ncnc3sccc23)cc1
Second: Cc1ccc(C(=O)Nc2ncc([N+](=O)[O-])s2)cc1
The solubility kinetic of the first is 1.6-fold lower: 17 µg/mL (≈ 56.6 µM) for the first, 27 µg/mL (≈ 103 µM) for the second.

First: Cc1ccc2nc(-c3ccccc3)c(-c3ccccc3)nc2c1
Second: CCC(=O)OCCNc1nc(-c2ccccc2)nc2ccccc12.Cl
The solubility kinetic of the first is lower: < 0.3 µg/mL for the first, 5.3 µg/mL for the second.

Going from `CC1CCCN(C(=O)C2CCN(C(=O)Nc3ccccc3)CC2)C1` (stereo unspecified) to `O=C(Nc1ccccc1)N1CCCN(c2ccc(C(F)(F)F)cn2)CC1`, the solubility kinetic falls from > 49.4 µg/mL to 9.7 µg/mL (≈ 26.6 µM).

Going from `COc1cccc(NC(=S)NCc2ccc(F)cc2)c1` to `COc1ccc(C(=O)NCCNC(=O)c2ccccn2)cc1`, the solubility kinetic rises from 37.9 µg/mL (≈ 131 µM) to > 44.9 µg/mL.

First: O=C(Nc1ccc2c(c1)OCO2)c1cnccn1
Second: O=C(Nc1ccc2c(c1)OCCO2)c1ccc(Cl)c(Cl)c1
The solubility kinetic of the first is higher: 19.5 µg/mL (≈ 80.2 µM) for the first, < 0.7 µg/mL for the second.

Going from `O=C(NCc1cccs1)c1cc(-c2ccc(O)cc2)on1` to `Cc1cccc(C)c1OCc1cc(C(=O)NCC2CC2)no1`, the solubility kinetic rises from 1.7 µg/mL (≈ 5.66 µM) to 4.6 µg/mL (≈ 15.3 µM) (2.7-fold).

`CC1CCC(NC(=O)C2CC(O)CN2S(=O)(=O)c2ccc([N+](=O)[O-])cc2)CC1` (stereo unspecified) and `CC(OC(=O)CC1CC2CCC1C2)C(=O)Nc1ccc(C(N)=O)cc1` (stereo unspecified) cannot be ordered by solubility kinetic: > 61.7 µg/mL for the first, > 51.7 µg/mL for the second.

First: Cc1c(/C=N/O)c2ccccn2c1C(=O)c1ccc(F)cc1
Second: Cc1ccccc1N=Cc1cccc(O)c1O
The solubility kinetic of the first is 3.8-fold lower: 5.5 µg/mL (≈ 18.6 µM) for the first, 20.9 µg/mL (≈ 92 µM) for the second.

Going from `Cc1cccc(CSc2ncnc3ccccc23)c1` to `Cc1cc(=O)[nH]c(SCc2cccc3cccnc23)n1`, the solubility kinetic rises from 0.4 µg/mL (≈ 1.5 µM) to 13.4 µg/mL (≈ 47.3 µM) (34-fold).

`Cc1nc(SCC(=O)N2CCCC2=O)nc(C)c1C` and `Cc1nn(C)c(C)c1NC(=O)/C(C#N)=C\N(C)C` cannot be ordered by solubility kinetic: > 41.9 µg/mL for the first, > 37.1 µg/mL for the second.

First: CCOC(=O)c1c(O)cc(C)cc1Nc1ccccc1
Second: CC1=C/C(=N\OS(=O)(=O)c2ccccc2)C(C)=CC1=O
The solubility kinetic of the first is lower: < 0.6 µg/mL for the first, 6.4 µg/mL (≈ 22 µM) for the second.

`Nc1ccc(Nc2nc3ccccc3[nH]2)cc1` and `c1ccc2[nH]c(-c3ccc4c(c3)OCO4)nc2c1` are within 1.5-fold of each other in solubility kinetic: 25.8 µg/mL (≈ 115 µM) for the first, 34.4 µg/mL (≈ 144 µM) for the second.

Going from `Cc1cccc(NS(=O)(=O)c2ccc(Cl)cc2)n1` to `CCS(=O)(=O)c1ccc(O)c(NC(=O)Nc2ccc(C(C)(C)C)cc2)c1`, the solubility kinetic falls from 31.6 µg/mL (≈ 112 µM) to 0.8 µg/mL (≈ 2.12 µM) (40-fold).

Compared with `O=C(CCc1c[nH]c2ccccc12)Nc1ncccc1O`, `Cc1ccc(NCc2ccc(O)c3ncccc23)cc1C` is lower in solubility kinetic: > 42.2 µg/mL for the first, 3.6 µg/mL (≈ 12.9 µM) for the second.

Compared with `O=C(O)C1CC=CCC1C(=O)NCc1ccc(Cl)c(Cl)c1` (stereo unspecified), `O=C(Nc1cccc(Cl)c1N1CCOCC1)c1ccco1` is lower in solubility kinetic: > 49.2 µg/mL for the first, 5.7 µg/mL (≈ 18.6 µM) for the second.

Going from `Cc1ccccc1-c1nc(S(=O)(=O)c2ccccc2)c(NCCCN2CCOCC2)o1` to `CN(Cc1ccccc1)C(=O)COC(=O)CCC(=O)c1ccc(Cl)cc1`, the solubility kinetic falls from 44.9 µg/mL (≈ 102 µM) to 9.6 µg/mL (≈ 25.7 µM) (4.7-fold).

`O=C(CNC(=O)c1ccccc1F)NC1=NCCS1` and `CC1CCCN(C(=O)CNC(=O)c2ccco2)C1` (stereo unspecified) cannot be ordered by solubility kinetic: > 42.2 µg/mL for the first, > 37.5 µg/mL for the second.

With `COc1ccc(CCNC(=O)COC(=O)/C=C/c2cc(OC)ccc2OC)cc1` the solubility kinetic was 5.3 µg/mL (≈ 13.3 µM).
